Patent publication US4774248A, “Methods of treating depression and depressive states using 5-phenyl-1,4,5,6-tetrahydropyrimidine derivatives” (priority 1985, dated 1988)
“Also recorded” adds a separate entry of the source.

Assays:
mice [1] = assay: Electric shock; type: in vivo; conditions: i.p.
Procedure: (§1) The results of toxicological and neuropsychopharmacological tests which were carried out with the products according to the invention have been summarized below. In these tests, solutions of the said products in distilled water were administered intraperitoneally in a volume of 20 ml/kg to male mice and in a volume of 5 ml/kg to male rats.
The test is performed on groups of 10 mice 30 minutes after the administration of CRL 41 378.

pregnant rabbits = assay: Teratogenic effects on pregnant rabbits; type: in vivo
[2] = system: sleep induced by barbital; assay: Interaction with barbital; type: in vivo; conditions: mice, i.p.; barbital 220 mg/kg
Procedure: as §1
Half an hour after the administration of CRL 41 378, groups of 10 mice receive an intraperitoneal injection of barbital (220 mg/kg).

[3] = system: stereotypies induced by amphetamine; assay: Interaction with amphetamine (rats); type: in vivo; conditions: i.p.; amphetamine 2 mg/kg
Procedure: as §1
(§2) Amphetamine (2 mg/kg) is injected intraperitoneally into groups of 6 rats 30 minutes after the administration of CRL 41 378.

[4] = system: hypothermia and ptosis induced by reserpine; assay: Interaction with reserpine; type: in vivo; conditions: mice, i.p.; for action on hypothermia induced by reserpine / action on ptosis induced by reserpine: reserpine 2.5 mg/kg, hydrochloride
How it was run: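 Reserpine 2.5 mg/kg i.p. given to male mice in groups of 12; test compound dissolved in distilled water and given i.p. (20 ml/kg) four hours later.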

anesthetized dogs = assay: Cardiovascular study in anesthetized dogs; type: in vivo
pH of aqueous solution = type: physicochemical
Procedure: The tests were carried out in solution in water at pH 4.0-5.5. The pH of the aqueous solution of CRL 41 378 varies according to the concentration: it is 4.0 at a concentration of 50 g/l, 4.5 at 12.5 g/l, 5.0 at 0.8 g/l and 5.5 at CRL 41 378 concentrations less than or equal to 0.2 g/l.

[5] = system: hypothermia, righting behavior and stereotypies induced by apomorphine; assay: Interaction with apomorphine in mice; type: in vivo; conditions: for minimal effective dose: Mus musculus, ip, read-out: dose as from which the hypothermia induced by apomorphine is antagonized; for action on righting behavior and stereotypies due to apomorphine / action on hypothermia induced by apomorphine: i.p.; for action on hypothermia induced by apomorphine: hydrochloride
How it was run: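 Male mice, groups of 6, given test compound intraperitoneally in distilled water (20 ml/kg) 30 min before subcutaneous apomorphine at 1 or 16 mg/kg. Hypothermia, righting behaviour and stereotypies scored.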

mice [6] = assay: Overall behavior and reactivities in mice; type: in vivo; conditions: i.p.
How it was run: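 Male mice (20 ml/kg) and male rats (5 ml/kg) dosed intraperitoneally with compound in distilled water.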

mice [7] = assay: Behavioral despair (forced immersion); type: in vivo; conditions: mice which have been forcibly immersed, i.p.; hydrochloride
Procedure: as §1
Half an hour after they have received CRL 41 378, groups of 6 mice are placed in a beaker filled with water to a height of 6 cm. The total period of immobility between the 2nd and 6th minutes following immersion is noted.

[8] = system: stereotypies induced by amphetamine; assay: Interaction with amphetamine (mice as printed); type: in vivo; conditions: in mice (so in the source), i.p.
Procedure: as §2
Using the procedures given above, the following results were obtained with a solution of CRL 41 382 in water at pH 6.

| SMILES | lethal effects of electric shock (mice [1]) | teratogenic effects (pregnant rabbits) | duration of the sleep induced by barbital [2] | action on hypothermia induced by reserpine [4] | action on ptosis induced by reserpine [4] | minimal effective dose [5] | action on righting behavior and stereotypies due to apomorphine [5] | action on hypothermia induced by apomorphine [5] | overall behavior and reactivities (mice [6]; 64 mg/kg, hydrochloride) | also measured |
| --- | --- | --- | --- | --- | --- | --- | --- | --- | --- | --- |
| CC(=O)N1C=NCC(c2ccccc2)C1.Cl (centres unmarked) [CRL 41 378, 1-acetyl-5-phenyl-1,4,5,6-tetrahydropyrimidine hydrochloride] | At the two highest doses studied (16 and especially 64 mg/kg), CRL 41 378 strongly aggravates the lethal effects of electric shock | devoid of harmful teratogenic effects on pregnant rabbits | practically no modification of the duration of the sleep induced by barbital | at doses of 0.5 mg/kg to 4 mg/kg, CRL 41 378 antagonizes the hypothermia induced by reserpine; also recorded: this effect tends to decrease to nothing at a dose of 16 mg/kg; also recorded: the highest dose used (64 mg/kg) being inactive towards the hypothermia induced by reserpine; also recorded: antagonism of the hypothermia induced by apomorphine, reserpine and oxotremorine in mice | moderate decrease in the ptosis induced by reserpine 24 h after administration; also recorded: absence of distinct antagonism of the ptosis induced by reserpine | ≥ 0.5 mg/kg | practically no modification of the righting behavior and stereotypies due to apomorphine | antagonizes the hypothermia induced by apomorphine; also recorded: antagonism of the hypothermia induced by apomorphine, reserpine and oxotremorine in mice | sedation for 3 h; also recorded: a decrease in the breathing rate appearing between T+0.5 h and T+1 h after administration; also recorded: moderate hypothermia; also recorded: an increase in the reactivity to touch and vasodilation of the paws for 0.5 h; also recorded: salivation appearing between T+1 h and T+2 h after administration; also recorded: mydriasis for 3 h | convulsant effects of electric shock (mice [1]): without modifying the convulsant effects; action on stereotypies induced by amphetamine [3]: at the highest dose used (32 mg/kg), CRL 41 378 potentiates the stereotypies induced by amphetamine; minimal effective dose ([4]; Mus musculus, ip, 24 h after administration, read-out: dose as from which the ptosis induced by reserpine is moderately decreased): ≥ 0.5 mg/kg; blood flows through the femoral and vertebral arteries (anesthetized dogs; route not specified): decreases the blood flows through the femoral and vertebral arteries; pH of the aqueous solution (pH of aqueous solution; 0.8 g/l): 5.0; pH of the aqueous solution (pH of aqueous solution; 12.5 g/l): 4.5; pH of the aqueous solution (pH of aqueous solution; 50 g/l): 4.0; pH of the aqueous solution (pH of aqueous solution; less than or equal to 0.2 g/l): 5.5; overall behavior and reactivities (mice [6]; 1 mg/kg): no distinct modification of the behavior and reactivities compared with the control animals; overall behavior and reactivities (mice [6]; 4 mg/kg): moderate mydriasis for 3 h, the maximum intensity being reached 1 h after administration; overall behavior and reactivities (mice [6]; 16 mg/kg, hydrochloride): moderate salivation 1 h after administration; also recorded: moderate hypothermia; also recorded: moderate mydriasis 1 h after administration |
| Cl.OC1(c2ccccc2)CN=CNC1 (centres unmarked) [CRL 41 382, 5-hydroxy-5-phenyl-1,4,5,6-tetrahydropyrimidine hydrochloride] | aggravates (at a dose of 64 mg/kg) the lethal effects of electric shock | devoid of harmful teratogenic effects on pregnant rabbits | practically no modification of the duration of the sleep induced by barbital | At doses of 4 mg/kg and 16 mg/kg, CRL 41 382 opposes the hypothermia induced by reserpine; also recorded: At the highest dose used (64 mg/kg), CRL 41 382 has no effect on the hypothermia induced by reserpine; also recorded: antagonism of the hypothermia induced by reserpine no longer appears at the high dose of CRL 41 382 used | practically no modification of the ptosis induced by reserpine; also recorded: absence of antagonism of the ptosis induced by reserpine | ≥ 1 mg/kg | practically no modification of the righting behavior and stereotypies | as from a dose of 1 mg/kg and especially at doses of 16 to 64 mg/kg, CRL 41 382 opposes the hypothermia induced by apomorphine; also recorded: antagonism of the hypothermia induced by apomorphine, oxotremorine and reserpine in mice | sedation for 1 h; also recorded: a decrease in the reactivity to touch and the fear reaction for 0.5 h | convulsant effects of electric shock (mice [1]; hydrochloride): does not oppose the convulsant effects; also recorded: absence of any anticonvulsant action; blood flows through the femoral and vertebral arteries (anesthetized dogs; intraduodenal): decreases the blood flows through the femoral and vertebral arteries; blood flows through the femoral and vertebral arteries (anesthetized dogs; intravenous): decreases the blood flows through the femoral and vertebral arteries; period of immobility (mice [7]): does not modify the period of immobility; also recorded: absence of antagonism of the immobility due to "despair"; action on stereotypies induced by amphetamine [8]: practically no modification of the stereotypies induced by amphetamine; overall behavior and reactivities (mice [6]; 1 mg/kg, 4 mg/kg and 16 mg/kg): no distinct modification of the behavior and reactivities compared with the control animals |
